Patent US5532382A, “Benzothiophenes substituted at the 3-carbonyl” (Eli Lilly and Company, priority 1995, dated 1996)

System: MCII cells
Test: MCII MAST CELL TOXICITY ASSAY (XTT)
Format: cell-based, mouse
Conditions: XTT formazan, 37° C. 4-12 hours; read-out: MCII Mast Cell Toxicity IC50
Description: MCII MAST CELL TOXICITY ASSAY
This toxicity assay is run in parallel with the MCII mast cell LTC4 assay and serves as an indicator of compound effects on the viability and metabolic activity of the MCII cells. This "toxicity" assay is based on the ability of dehydrogenase enzymes present in viable metabolically active cells to bioreduce the tetrazolium salt XTT yielding a colored, water soluble formazan product. (see, Roehm et al.) An improved colorimetric assay for cell proliferation and viability utilizing the tetrazolium salt XTT. J. Immunol. Methods 142:257-65 (1991).
A duplicate polystyrene 96-well tissue culture plate (Costar) is set up with sensitized MCII cells, EM95 ascites, media and dilutions of the test compound as described above. The complete media is supplemented with concanavalin A induced culture supernatants from the mouse helper T cell clone D10.G4, as a source of mast cell growth factors.
Wells of the toxicity assay Elate are pulsed with 25 μl XTT (Sigma) plus phenazine methosulfate (Aldrich) giving a final concentration of 0.2 mg/ml XTT and 25 μM phenazine methosulfate. The plates are incubated at 37° C. in 10% CO2 for 4-12 hours and then production of the XTT formazan product determined by measuring the optical density of the wells at a wavelength of 450 nm. The positive control on each plate is stimulated MCII cells with dimethyl sulfoxide vehicle alone and the negative control is the same reaction mixture without cells. The background negative control value is subtracted from experimental and positive control values and the data are reported as percent of positive control.

Compared with `O=C(c1ccccc1)c1c(-c2ccc(O)cc2)sc2cc(O)ccc12` [Compound A], `O=C(c1ccc(-c2ccccc2)cc1)c1c(-c2ccc(O)cc2)sc2cc(O)ccc12` [Example 1, 6-hydroxyphenyl-2-(p-hydroxyphenyl)-(benzo(B)thien-3-yl)(p-phenyl)phenyl methanone] is higher in CC50: 0.3 µM for the first, > 10 µM for the second.

First: Oc1ccc(-c2cc3ccc(O)cc3s2)cc1 [Compound B]
Second: O=C(c1cccc2ccccc12)c1c(-c2ccc(O)cc2)sc2cc(O)ccc12 [Example 2, 6-hydroxyphenyl-2-(p-hydroxyphenyl)-(benzo(B)thien-3-yl) (α-naphyl)methanone]
The CC50 of the first is lower: < 10 µM for the first, > 10 µM for the second.

In the case of `O=C(c1ccc2ccccc2c1)c1c(-c2ccc(O)cc2)sc2cc(O)ccc12` [Example 3, 6-hydroxyphenl-2-(p-hydroxyphenyl)-(benzo(B)thien-3-yl) (β-napthyl)methanone], the CC50 is reported as > 10 µM.

System: production of thromboxane B2 (T×B2) in plasma-depleted blood
Test: Inhibition of Eicosanoid Production by Plasma-depleted Blood: TxB2
Format: cell-based
Conditions: Homo sapiens, read-out: Plasma DPLTD Blood TxB2 IC50
Method: Inhibition of Eicosanoid Production by Plasma-depleted Blood.
Compounds are evaluated for their ability to inhibit production of leukotriene B4 (LTB4) and thromboxane B2 (T×B2) upon stimulation of human plasma-depleted blood with formyl-methionyl-leucyl-phenylalanine (FMLP) and thrombin. LTB4 is produced by neutrophils and T×B2 by platelets stimulated at their respective receptors with FMLP and thrombin. The assay is carried out in 1 ml deep well polypropylene 96-well plates (Beckman). For the test, ten ml of blood is collected in EDTA at a final concentration of 1.5 mg/ml. Then, 40 ml glucose phosphate buffer containing 0.1% gelatin is added and the suspension centrifuged at 900 g for 10 minutes at room temperature. The supernatant is discarded and the cells washed once with 50 ml buffer before resuspending them in 50 ml Krebs-Ringers-Henseleit Buffer containing 0.1% gelatin, 1 mM […], 1.1 mM MgCl2 (KRH buffer). Working solutions of test compounds are made by dissolving the material in DMSO at 10 mM and diluting with appropriate amounts of KRH buffer. An agonist solution is made containing 1 μM FMLP (sigma) and 10 units/ml of thrombin in KRH buffer (Enzyme Research Labs). […] The amount of LTB4 and T×B2 produced is determined by the use of a competetive enzyme immunoassay using commercial reagents from Cayman Chemical.

`O=C(c1ccc(O)cc1)c1c(-c2ccc(O)cc2)sc2cc(O)ccc12` [Compound D] was tested, and the IC50 was > 9.8 µM.
